Measurements from patent US10912843B2, “Endoplasmic reticulum-targeting nanovehicles and methods for use thereof” (National Cheng Kung University, priority 2018, dated 2021).

Experiments:
[1] = tested on: differentiated HL-60 cells; test: Curcumin-induced extracellular calcium influx; assay type: cell-based
Description: Extracellular calcium influx, which is triggered by the depletion of ER calcium stores, was measured in cells treated with free curcumin or treated with curcumin-loaded nanoparticles as follows. Differentiated HL-60 cells were pretreated with free curcumin (10 μM), curcumin-loaded PLGA nanoparticles (0.5 μM), and curcumin-loaded ER-targeted PLGA nanoparticles (0.5 μM) at 37° C. overnight. Cells were washed with calcium-free HBSS, seeded on poly-lysine coated 8-well slides (ibidi, Planegg, Germany) at a density of 1×10^6 cells/ml, and incubated at 37° C. for 30 min. Cells were labeled with 2 μM of the calcium-sensitive fluorescent dye Fluo-4 AM and 1 μM of ER-tracker at 37° C. for 30 min. Labeled cells were treated with 1.25 mM CaCl2. Fluorescence images were captured by confocal microscopy every 10 s for 5 min. following the addition of CaCl2. Fluorescence intensities in these images were analyzed using ImageJ software. The change in fluorescence intensity over time divided by the baseline fluorescence intensity prior to calcium addition (ΔF/FO) was plotted versus time, and the rate of calcium level increase (ΔF/F/s) was derived from that plot. The overall calcium flux was calculated as the area under the curve (AUC) of a ΔF/F/s versus time curve.

H338Y-gp91^phox protein = test: Expression and maturation of H338Y-gp91^phox protein in neutrophils of treated transgenic mice (Western blot); assay type: in vivo, mouse; settings: Cybb^C1024T transgenic Cybb^-/- mice, treated 24 hours, 20 mg/kg of curcumin
Description: The expression of H338Y-gp91^phox protein in neutrophils from the Cybb^C1024T transgenic Cybb^−/− mice was examined by SDS-PAGE and Western blotting with an anti-gp91^phox antibody. To isolate neutrophils, mice were injected intraperitoneally with 3 ml of 3% thioglycollate to elicit peritoneal neutrophils. Four hours later, the mice were sacrificed, and the peritoneal cavity was washed twice with 5 ml of Hanks buffered salt solution (HBSS) with 2 mM ethylene glycol tetraacetic acid to collect the elicited peritoneal neutrophils. Peritoneal neutrophils were then washed with PBS before use.
Curcumin-loaded PLGA nanoparticles with or without the ER-targeting KDEL peptide were tested for their effects on the expression and maturation of H338Y-gp91^phox protein in Cybb^C1024T transgenic Cybb^−/− mice. Briefly, mice were untreated or treated separately with free curcumin, curcumin-loaded PLGA nanoparticles, or curcumin-loaded ER-targeted PLGA nanoparticles for 24 hours in amounts corresponding to 20 mg/kg of curcumin. Neutrophils from the mice were elicited, isolated, and analyzed for expression of H338Y-gp91^phox protein as described above.
Statistical analyses were carried out with Prism software (GraphPad Software). […]

[2] = tested on: differentiated HL-60 cells; test: Curcumin-induced intracellular calcium release (Fluo-4AM); assay type: cell-based; settings: 10 μM
Description: SERCA inhibitors such as curcumin cause an increase in intracellular calcium release from the ER. The ability of curcumin to induce calcium release was compared to that of PLGA nanoparticle-encapsulated curcumin. Differentiated HL-60 cells were seeded on 8-well slides in calcium-free medium and loaded with the intracellular calcium-sensitive indicator dye Fluo-4AM. Cells were treated with thapsigargin (positive control) or treated with 0.5, 1, or 10 μM curcumin, curcumin-loaded PLGA nanoparticles, or curcumin-loaded ER-targeted PLGA nanoparticles. Fluorescence intensity over time was measured in treated cells by confocal microscopy and analyzed using ImageJ software. The change in fluorescence intensity over time divided by the baseline fluorescence intensity prior to calcium addition (ΔF/FO) was plotted versus time.

[3] = tested on: differentiated HL-60 cells; test: Mitochondrial membrane potential (TMRM, flow cytometry); assay type: cell-based; settings: 10 μM, 24 hours; FIG. 5A
Description: As mentioned above, it has been shown that curcumin is cytotoxic, as it induces ER stress and apoptosis. The cytotoxicity of free curcumin was compared to that of encapsulated curcumin by measuring in treated cells mitochondrial membrane potential (one measure of cytotoxicity), apoptotic markers, and ER stress-related protein expression.
(§1) Differentiated HL-60 cells were treated with 0.5 μM or 10 μM free curcumin, curcumin-loaded PLGA nanoparticles, or curcumin-loaded ER-targeted PLGA nanoparticles for 24 hours. Treated cells were labeled with 250 nM of the mitochondrial membrane potential indicator dye tetramethylrhodamine (TMRM) at 37° C. for 30 min. TMRM-labeled cells were analyzed by flow cytometry and their mitochondrial membrane potentials quantified using the Flowing Software 2 software package.

[4] = tested on: differentiated HL-60 cells; test: Detection of apoptotic cells (Annexin V / 7-AAD); assay type: cell-based; settings: 10 μM, 24 hours; FIG. 5B
Description: as §1
Cells treated as above with free or encapsulated curcumin were washed with ice-cold phosphate-buffered saline and stained with phycoerythrin-Annexin V and 7 amino-actinomycin D (7-AAD) at room temperature for 15 min. Annexin V binds to the surface of cells undergoing apoptosis, and 7-AAD only enters and stains apoptotic cells. Stained cells were subjected to flow cytometry analysis and the results analyzed using the Flowing Software 2 analysis package.

[5] = tested on: differentiated HL-60 cells; test: ER stress response and caspase-3 cleavage (Western blot); assay type: cell-based; settings: 10 μM
Description: To determine whether the activation of the ER stress response is involved in curcumin-induced apoptosis, the levels of ER stress markers Bip and phosphorylated ERK, as well as the level of cleaved Caspase-3, a marker of apoptosis, were quantified by Western blot analysis of cells treated with 10 μM curcumin or encapsulated curcumin.
Briefly, treated cells were lysed in 100 μl of lysis buffer (1% Triton-X100, 150 mM NaCl, 10 mM Tris base, 1 mM EDTA, 1 mM EGTA, 50×protease inhibitor cocktail, pH 7.4). Lysed samples were subjected to 10% SDS-PAGE and transferred to membranes for Western Blot analysis using antibodies that bind to Bip, phospho-ERK, total ERK, cleaved caspase-3, and β-actin. Binding of these antibodies was visualized using commercially available enhanced chemiluminescence reagents. Chemiluminescent signals were quantified from images using ImageJ software.

[6] = tested on: human peripheral blood hematopoietic cells (HSCs); test: Erythroblast differentiation (CD71 / CD235a flow cytometry); assay type: cell-based; settings: FIG. 6A
Description: Erythroblast differentiation was measured in human peripheral blood hematopoietic cells (HSCs) treated with free curcumin or treated with curcumin-loaded nanoparticles as follows. Human CD34^+ HSCs were cultured in Iscove's modified Dulbecco medium containing 15% heat-inactivated fetal calf serum, 2 U/ml of recombinant human erythropoietin, 20 ng/ml of stem cell factor, and 10 ng/ml of interleukin-3 (IL-3). On day 4, the medium was replaced with fresh medium without IL-3 and the HSCs were cultured for another 5 days. The maturation of erythroblasts was analyzed by detecting the surface expression of CD71 and CD235a with flow cytometry.

mitochondrial membrane potential compared with control untreated cells [3] | ERK phosphorylation compared with untreated control cells ([5]; FIG. 5C center panel) | Bip expression compared with untreated control cells ([5]; FIG. 5C left panel) | SMILES | time to calcium influx after addition ([1]; positive control, 1.25 mM extracellular calcium) | expression of glycosylated H338Y-gp91^phox as compared to untreated mice (H338Y-gp91^phox protein) | rate of intracellular calcium increase, compared with lower concentrations of free curcumin [2] | level of calcium release, compared with 0.5 μM and 1 μM free curcumin ([2]; calcium-free medium, 40, 50 and 60 s after treatment) | calcium influx rate 20 s after treatment, compared with 0.5 μM curcumin-loaded nanoparticles ([1]; 10 μM) | number of apoptotic cells (Annexin V binding) [4] | percentages of more mature CD71^low CD235^high cells in treated HSCs [6]
– | – | – | C/C=C(/C)C(=O)O[C@H]1C(C)=C2[C@H]([C@@H]1OC(=O)CCCCCCC)[C@@](C)(OC(C)=O)C[C@H](OC(=O)CCC)[C@@]1(O)[C@H]2OC(=O)[C@@]1(C)O [Thapsigargin, thapsigargin] | ≤ 10 s | – | – | – | – | – | –
significant reduction | increased | increased | COc1cc(/C=C/C(=O)CC(=O)/C=C/c2ccc(O)c(OC)c2)ccc1O [free curcumin, curcumin] | – | did not show any change | highest | significantly higher | significantly higher | significant increase | significantly enhanced
